Measurements: the supplement of paper PMC10627819

Columns and labels:
[1] = system: B. subtilis 168; assay: fitness (endpoint OD595 vs no drug) (fraction); higher = more growth
In short: (§1)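 In 384-well plates at 37 °C, cultures began at OD595 0.01 in 30 µl, with 55 µl used for S. pneumoniae. OD595 readings every 30 min for 14 h were corrected by the first reading. Fitness divides the stationary-phase transition optical density by the robust mean of no-drug control wells. The result is capped at 1.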

[2] = system: S. aureus DSM 20231; assay: as above
In short: as §1

[3] = system: S. aureus Newman; assay: as above
In short: as §1

[4] = system: S. pneumoniae D39V; assay: as above
In short: as §1

[5] = system: B. subtilis 168; assay: Bliss interaction score (quartile over a dose matrix) (fitness difference); higher = more antagonism (negative = synergy)
In short: (§2)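 Fitness is OD595 at stationary-phase entry relative to the plate's robust no-drug mean, capped at 1. Single-drug fitness was inferred from combinations. The Bliss score is observed minus product-expected fitness, summarised by quartiles over technical, biological and donor/recipient replicates.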

[6] = system: S. aureus DSM 20231; assay: as above
In short: as §2

[7] = system: S. aureus Newman; assay: as above
In short: as §2

[8] = system: S. pneumoniae D39V; assay: as above
In short: as §2
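Throughout, for Bliss interaction score (quartile over a dose matrix): first quartile when negative (synergy) and third quartile when positive (antagonism).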

C[C@@H]1O[C@@H]1P(=O)(O)O [Fosfomycin] + CN(N=O)C(=O)N[C@@H](C=O)[C@@H](O)[C@H](O)[C@H](O)CO [Streptozotocin]
fitness
Conditions	partner 0.15 µg/mL	partner 0.3 µg/mL	partner 0.6 µg/mL	partner 1.2 µg/mL	partner 2.4 µg/mL	partner 4.8 µg/mL
[1], first compound 1.562 µg/mL	0.682	0.688	0.69	–	–	–
[1], first compound 3.124 µg/mL	0.609	0.588	0.579	–	–	–
[1], first compound 6.248 µg/mL	0.432	0.42	0.435	–	–	–
[2], first compound 0.781 µg/mL	0.717	0.627	0.549	–	–	–
[2], first compound 1.562 µg/mL	0.59	0.533	0.509	–	–	–
[2], first compound 3.124 µg/mL	0.476	0.441	0.292	–	–	–
[3], first compound 0.781 µg/mL	0.526	0.501	0.462	–	–	–
[3], first compound 1.562 µg/mL	0.491	0.455	0.342	–	–	–
[3], first compound 3.124 µg/mL	0.129	0.146	0.0801	–	–	–
[4], first compound 1.25 µg/mL	–	–	–	0.898	0.934	0.952
[4], first compound 2.5 µg/mL	–	–	–	0.899	0.923	0.952
[4], first compound 5 µg/mL	–	–	–	0.732	0.703	0.747

Conditions	Bliss interaction score
[5]	-0.108
[6]	-0.0585
[7]	-0.0994
[8]	-0.0567

C[C@@H]1O[C@@H]1P(=O)(O)O [Fosfomycin] + CN[C@@H]1[C@H](O)[C@H](NC)[C@H]2O[C@@]3(O)C(=O)C[C@@H](C)O[C@H]3O[C@@H]2[C@H]1O [Spectinomycin]
fitness
Conditions	partner 2 µg/mL	partner 4 µg/mL	partner 8 µg/mL	partner 16 µg/mL
[1], first compound 1.562 µg/mL	0.657	0.662	0.601	–
[1], first compound 3.124 µg/mL	0.554	0.526	0.426	–
[1], first compound 6.248 µg/mL	0.431	0.4	0.212	–
[2], first compound 0.781 µg/mL	–	0.69	0.72	0.683
[2], first compound 1.562 µg/mL	–	0.588	0.568	0.595
[2], first compound 3.124 µg/mL	–	0.511	0.495	0.416
[3], first compound 0.781 µg/mL	–	0.574	0.58	0.497
[3], first compound 1.562 µg/mL	–	0.452	0.412	0.234
[3], first compound 3.124 µg/mL	–	0.0691	0.0277	0.0028
[4], first compound 1.25 µg/mL	–	0.943	0.885	0.806
[4], first compound 2.5 µg/mL	–	0.899	0.868	0.817
[4], first compound 5 µg/mL	–	0.704	0.734	0.652

fitness, one replicate
Conditions	first compound 0.781 µg/mL	first compound 1.562 µg/mL	first compound 3.124 µg/mL
[2], partner 32 µg/mL	0.692	0.564	0.268
[2], partner 64 µg/mL	0.0413	0.0145	0.0077
[3], partner 32 µg/mL	0.056	0.0135	0
[3], partner 64 µg/mL	0.0367	0.0527	0.0276

Conditions	Bliss interaction score
[5]	-0.107
[6]	-0.0508
[7]	-0.171
[8]	0.0537

C[C@@H]1O[C@@H]1P(=O)(O)O [Fosfomycin] + COc1c(N2C[C@@H]3CCCN[C@@H]3C2)c(F)cc2c(=O)c(C(=O)O)cn(C3CC3)c12 [Moxifloxacin]
Conditions	fitness
[1], first compound 1.562 µg/mL, partner 0.0312 µg/mL	0.0743
[1], first compound 1.562 µg/mL, partner 0.0625 µg/mL	0.0627
[1], first compound 1.562 µg/mL, partner 0.125 µg/mL	0.0277
[1], first compound 1.562 µg/mL, partner 2 µg/mL	0.0303
[1], first compound 1.562 µg/mL, partner 4 µg/mL	0.0293
[1], first compound 1.562 µg/mL, partner 8 µg/mL	0.0076
[1], first compound 3.124 µg/mL, partner 0.0312 µg/mL	0.0504
[1], first compound 3.124 µg/mL, partner 0.0625 µg/mL	0.0309
[1], first compound 3.124 µg/mL, partner 0.125 µg/mL	0.0339
[1], first compound 3.124 µg/mL, partner 2 µg/mL	0.033
[1], first compound 3.124 µg/mL, partner 4 µg/mL	0.0332
[1], first compound 3.124 µg/mL, partner 8 µg/mL	0.0176
[1], first compound 6.248 µg/mL, partner 0.0312 µg/mL	0.0469
[1], first compound 6.248 µg/mL, partner 0.0625 µg/mL	0.0265
[1], first compound 6.248 µg/mL, partner 0.125 µg/mL	0.0207
[1], first compound 6.248 µg/mL, partner 2 µg/mL	0.016
[1], first compound 6.248 µg/mL, partner 4 µg/mL	0.0083
[1], first compound 6.248 µg/mL, partner 8 µg/mL	0.0062
[2], first compound 0.781 µg/mL, partner 0.0075 µg/mL	0.629
[2], first compound 0.781 µg/mL, partner 0.015 µg/mL	0.609
[2], first compound 0.781 µg/mL, partner 0.03 µg/mL	0.606
[2], first compound 1.562 µg/mL, partner 0.0075 µg/mL	0.592
[2], first compound 1.562 µg/mL, partner 0.015 µg/mL	0.564
[2], first compound 1.562 µg/mL, partner 0.03 µg/mL	0.538
[2], first compound 3.124 µg/mL, partner 0.0075 µg/mL	0.493
[2], first compound 3.124 µg/mL, partner 0.015 µg/mL	0.455
[2], first compound 3.124 µg/mL, partner 0.03 µg/mL	0.299
[3], first compound 0.781 µg/mL, partner 0.0075 µg/mL	0.587
[3], first compound 0.781 µg/mL, partner 0.015 µg/mL	0.509
[3], first compound 0.781 µg/mL, partner 0.03 µg/mL	0.0675
[3], first compound 1.562 µg/mL, partner 0.0075 µg/mL	0.413
[3], first compound 1.562 µg/mL, partner 0.015 µg/mL	0.358
[3], first compound 1.562 µg/mL, partner 0.03 µg/mL	0.0359
[3], first compound 3.124 µg/mL, partner 0.0075 µg/mL	0.0916
[3], first compound 3.124 µg/mL, partner 0.015 µg/mL	0.0267
[3], first compound 3.124 µg/mL, partner 0.03 µg/mL	0.015
[4], first compound 1.25 µg/mL, partner 0.005 µg/mL	0.985
[4], first compound 1.25 µg/mL, partner 0.01 µg/mL	0.988
[4], first compound 1.25 µg/mL, partner 0.02 µg/mL	0.924
[4], first compound 1.25 µg/mL, partner 0.0312 µg/mL	0.139
[4], first compound 1.25 µg/mL, partner 0.0625 µg/mL	0.0679
[4], first compound 1.25 µg/mL, partner 0.125 µg/mL	0.0548
[4], first compound 2.5 µg/mL, partner 0.005 µg/mL	0.93
[4], first compound 2.5 µg/mL, partner 0.01 µg/mL	0.983
[4], first compound 2.5 µg/mL, partner 0.02 µg/mL	0.903
[4], first compound 2.5 µg/mL, partner 0.0312 µg/mL	0.12
[4], first compound 2.5 µg/mL, partner 0.0625 µg/mL	0.0706
[4], first compound 2.5 µg/mL, partner 0.125 µg/mL	0.0382
[4], first compound 5 µg/mL, partner 0.005 µg/mL	0.808
[4], first compound 5 µg/mL, partner 0.01 µg/mL	0.88
[4], first compound 5 µg/mL, partner 0.02 µg/mL	0.855
[4], first compound 5 µg/mL, partner 0.0312 µg/mL	0.106
[4], first compound 5 µg/mL, partner 0.0625 µg/mL	0.0921
[4], first compound 5 µg/mL, partner 0.125 µg/mL	0.0302

fitness, [2], one replicate
Conditions	first compound 0.781 µg/mL	first compound 1.562 µg/mL	first compound 3.124 µg/mL
partner 0.06 µg/mL	0.655	0.585	0.465
partner 0.12 µg/mL	0.46	0.403	0.247

Conditions	Bliss interaction score
[5]	-0.0148
[6]	0.0661
[7]	-0.0851
[8]	0.0534

C[C@@H]1O[C@@H]1P(=O)(O)O [Fosfomycin] + COc1ccc(C[C@H](N)C(=O)N[C@H]2[C@@H](O)[C@H](n3cnc4c(N(C)C)ncnc43)O[C@@H]2CO)cc1 [Puromycin]
fitness
Conditions	partner 0.39 µg/mL	partner 0.78 µg/mL	partner 1 µg/mL	partner 1.56 µg/mL	partner 2 µg/mL
[1], first compound 1.562 µg/mL	0.694	0.712	–	0.672	–
[1], first compound 3.124 µg/mL	0.65	0.562	–	0.583	–
[1], first compound 6.248 µg/mL	0.407	0.354	–	0.378	–
[2], first compound 0.781 µg/mL	0.799	0.776	–	0.829	–
[2], first compound 1.562 µg/mL	0.631	0.662	–	0.632	–
[2], first compound 3.124 µg/mL	0.491	0.541	–	0.514	–
[3], first compound 0.781 µg/mL	0.55	0.579	–	0.612	–
[3], first compound 1.562 µg/mL	0.463	0.495	–	0.516	–
[3], first compound 3.124 µg/mL	0.134	0.149	–	0.108	–
[4], first compound 1.25 µg/mL	–	–	0.974	–	0.916
[4], first compound 2.5 µg/mL	–	–	0.982	–	0.89
[4], first compound 5 µg/mL	–	–	0.902	–	0.898

fitness, [2], one replicate
Conditions	first compound 0.781 µg/mL	first compound 1.562 µg/mL	first compound 3.124 µg/mL
partner 3.12 µg/mL	0.828	0.733	0.611
partner 6.24 µg/mL	0.707	0.488	0.329

Conditions	Bliss interaction score
[5]	0.0393
[6]	0.047
[7]	-0.0684
[8]	0.116
